Measurements published in US9670217B2, “Process for preparing chlorins and their pharmaceutical uses” (UNIVERSIDADE DE COIMBRA, priority 2008, dated 2017).

Columns and labels:
[1] = tested on: CT26 (mouse colon carcinoma); assay: Cytotoxicity in the dark, resazurin assay; assay type: cell-based
Method: The cell lines employed in laser irradiation were the HT-29 (human colon carcinoma), PC-3 (human prostate carcinoma), SW2 (human small cell lung cancer), A-549 (human non-small cell lung cancer). S91/I3 (mouse melanoma) and CT26 (mouse colon carcinoma). They were used both for cytotoxicity and photocytotoxicity experiments. PC-3. SW2 and S91113 cells were cultured in RPMI-1640 medium (Sigma-Aldrich, Steinheim, Germany) and HT-29, A-549 and CT26 cells were cultured in Dulbecco's Modified Eagle Medium (DMEM) (Cambrex Bioscience, Verviers, Belgium). […] For the in vitro studies, cells at 85-90% confluence, were detached with Trypsin-Versene-EDTA solution (Cambrex Bioscience, Verviers, Belgium), counted and seeded in flat-bottom 96-well plates at the desired densities.
Cell viability assay. In the end of the experiences cell viability was evaluated by the resazurin reduction assay. […] The absorbance values of each well were measured at 540 nm and 630 nm using a microplate reader Multiskan Ex (Thermo-Electron Corporation, Vartaa, Finland).
Cytotoxicity. […] After the incubation the cell viability was evaluated. […] Cytotoxicity was quantified by expressing cell death relatively to untreated cells (% of control cells). […]

[2] = tested on: SKMEL 188 (human melanoma); assay: Cell photosensitization, filtered halogen lamp, MTT; assay type: cell-based; details: [Luzitin-Cl] = 20 μM
Method: Irradiation in in vitro experiments was performed using either a halogen lamp or a laser source. In the first case, a 500 W halogen lamp was placed 50 cm from the irradiated plate to insure a homogeneous irradiation. A cooled water filter (d=35 mm) and a 600 nm cut off filter were placed between the lamp and samples. The fluence rate reaching samples was 3 mW/cm^2. The emission spectrum of the halogen lamp was recorded using a spectroradiometer IL2000 (Spectrocube), FIG. 1. In the second case, three Lynx external cavity diode lasers TEC 500 powered by PilotPC 500 Laser Controllers (Sacher Lasertechnik, Marburg, Germany) were employed. The laser energies were stable at 40 mW for the 748 nm laser, 10 mW for the 649 laser and 10 mW for the 633 laser. The laser energies were regularly measured with a Coherent LaserCheck. In some in vitro experiments, the laser light was focused on an optical fiber through a collimator in microbench, and delivered to the cells. This system reduced the 748 nm laser light to 30 mW.
The cell lines employed in halogen lamp irradiation were the MCF7 (human breast carcinoma), SKMEL 188 (human melanoma) and S91/I3 (mouse melanoma) cells. They were used both for cytotoxicity and photocytotoxicity experiments. MCF7 cells were grown supplemented with 10% fetal calf (FBS) serum, 25 units/ml of penicillin, and 25 μg/ml of streptomycin. Human melanoma cells SKMEL-188 were grown in F10 medium supplemented with 10% fetal calf serum (FCS), 100 units/ml of penicillin, and 100 μg/ml of streptomycin. I3 subline of Cloudman S91 melanoma cells were cultured in RPMI 1640 medium supplemented with 100 units/ml of penicillin, 100 μg/ml streptomycin and 5% fetal calf serum (FCS) (Gibco BRL). […]
Cytotoxicity. Cell metabolic efficiency and viability were determined by the uptake and reduction of 3-(4,5-dimethylthiazol-2-yl)-2,5-diphenyl tetrazolium bromide (MTT) to an insoluble formazan dye by cellular microsomal enzymes. […] The 96-well culture plate was shaken for 0.5 min at room temperature and immediately read for optical density at 560 nm using an ELISA reader (GENios Plus; Tecan Trading AG, Switzerland). The cell survival was expressed by the absorbance changes of the formazan salt, and survival rate was given as the percent ratio of viable treated cells vs. the number of viable untreated cells. Number of cells was determined from linear regression of a calibration curve.
Cell photosensitization. […] The values were obtained from three independent experiments and expressed as percent of cell survival with reference to control cells, which were manipulated in the same manner but without incubation with photosensitizer and without illumination.

SMILES	highest concentration that causes relatively no effect in viability in the dark [1] [µM]	LD50 (light dose to kill 50% of the cells) [2] [J/cm^2]	LD90 (light dose to kill 90% of the cells) [2] [J/cm^2]
CCNS(=O)(=O)c1ccc(Cl)c(-c2c3nc(c(-c4c(Cl)ccc(S(=O)(=O)NCC)c4Cl)c4ccc([nH]4)c(-c4c(Cl)ccc(S(=O)(=O)NCC)c4Cl)c4nc(c(-c5c(Cl)ccc(S(=O)(=O)NCC)c5Cl)c5ccc2[nH]5)CC4)CC3)c1Cl [Luzitin-Cl2Et, 5,10,15,20-tetrakis(2,6-dichloro-3-N-ethylsulfamoylphenyl)bacteriochlorin]	50		
O=S(=O)(O)c1ccc(Cl)c(-c2c3nc(c(-c4cc(S(=O)(=O)O)ccc4Cl)c4ccc([nH]4)c(-c4cc(S(=O)(=O)O)ccc4Cl)c4nc(c(-c5cc(S(=O)(=O)O)ccc5Cl)c5ccc2[nH]5)CC4)CC3)c1 [Luzitin-Cl, 5,10,15,20-tetrakis(2-chloro-5-sulfonylphenyl)bacteriochlorin]		0.1	0.32
